Assays:
Bgxg1 [1] = target: T1, Bgxg1 (Pecoramyces ruminantium, UniProt A0A0U3AYH9); test: p-nitrophenol release, Lineweaver-Burk; assay type: biochemical; settings: pH 6.0, sodium acetate buffer, 39 °C; printed BDL (below detection limit, 500 nM)
T1 construct: codon-optimised fragment, 939 bp [sic], nucleotide positions 67-1,035 of transcript m.21910 (signal peptide predicted in full-length product)
From the text: (§1) p-nitrophenol release, Lineweaver-Burk on Bgxg1

Bgxg1 [2] = target: T1, Bgxg1; test: substrate competition: PNPG hydrolysis in presence of xylobiose; assay type: biochemical; settings: read-out: Relative specific activity (%)
From the text: substrate competition: PNPG hydrolysis in presence of xylobiose on Bgxg1

[3] = system: T2, O=[N+]([O-])c1ccc(O[C@@H]2OC[C@@H](O)[C@H](O)[C@H]2O)cc1; test: p-nitrophenol release, Lineweaver-Burk; assay type: biochemical, Pecoramyces ruminantium; settings: pH 6.0, sodium acetate buffer, 39 °C
T2 construct: codon-optimised fragment, 939 bp [sic], nucleotide positions 67-1,035 of transcript m.21910 (signal peptide predicted in full-length product)
From the text: as §1

T1 sequence (A0A0U3AYH9 23-335 limits assumed): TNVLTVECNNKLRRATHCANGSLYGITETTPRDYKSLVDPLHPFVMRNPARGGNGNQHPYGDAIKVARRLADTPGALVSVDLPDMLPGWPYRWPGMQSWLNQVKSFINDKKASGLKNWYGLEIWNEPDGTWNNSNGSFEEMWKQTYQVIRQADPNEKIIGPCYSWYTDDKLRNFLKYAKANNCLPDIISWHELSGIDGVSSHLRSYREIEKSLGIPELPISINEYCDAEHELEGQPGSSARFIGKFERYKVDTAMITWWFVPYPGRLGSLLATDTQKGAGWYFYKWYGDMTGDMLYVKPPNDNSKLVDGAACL

## O=[N+]([O-])c1ccc(O[C@@H]2O[C@H](CO)[C@@H](O)[C@H](O)[C@H]2O)cc1 [PNPG, p-nitrophenyl-β-D-glucopyranoside]
Bgxg1 [1]
  Km: < 0.5 µM

## O=[N+]([O-])c1ccc(O[C@@H]2O[C@H](CO)[C@H](O)[C@H](O)[C@H]2O)cc1 [PNPGal, p-nitrophenyl-β-D-galactopyranoside]
Bgxg1 [1]
  Km: < 0.5 µM

## OC1OC[C@@H](O[C@@H]2OC[C@@H](O)[C@H](O)[C@H]2O)[C@H](O)[C@H]1O (some centres unmarked) [xylobiose]
Bgxg1 [2]
  activity at 20000 µM: 57.2%

## Bgxg1 (Pecoramyces ruminantium)
[3]
  Km: 4.85 ± 0.62 µM
  Vmax: 127 µmol/min/mg

— paper PMC4975031, “A multifunctional GH39 glycoside hydrolase from the anaerobic gut fungus Orpinomyces sp. strain C1A” (PeerJ, 2016)
